Source: patent publication US20110076278A1 (priority 2005, published 2011)
Where two headings read alike, the source gives them in different places.

Legend:
[1] = test system: choroidal neovascularization; experiment: Choroidal neovascularization model with Alzet osmotic pump; assay type: in vivo; conditions: versus vector (vehicle) alone
cancer cell lines = experiment: Proliferation of cancer cell lines; assay type: cell-based
[2] = Serum concentration in the choroidal neovascularization experiment; assay type: in vivo; conditions: choroidal neovascularization model, Alzet osmotic pump
[3] = cited from earlier work; for max. plasma concentration: in vivo
HIF-1α = HIF-1α Western blot in ARPE-19 cells under hypoxia; assay type: cell-based, human
Description: Samples were fractionated on 3-8% Tris-Acetate gel (Invitrogen NUPAGE system) by sodium dodecyl sulfate (SDS)-polyacrylamide gel electropherosis and transferred onto nitrocellulose membrane. […] Anti-Beta-actin monoclonal antibody (Abcam, ab6276-100) was used at a 1:5000 dilution with a 30-minute incubation at room temperature.

VEGF = VEGF ELISA on supernatants of ARPE-19 cells under hypoxia; assay type: cell-based; conditions: Homo sapiens, ARPE-19, hypoxia 24 hours, read-out: IC50 VEGF expression
Description: (§1) ARPE-19 was cultured in DMEM/F-12 medium supplemented with 10% heat-inactivated FBS, penicillin (100 U/mL), and streptomycin (100 ug/mL). Cells were grown in incubator with humidified atmosphere containing 5% CO2 at 37° C. To induce hypoxia conditions, cells are placed in a Billups-Rothenberg modular incubator chamber and flushed with artificial atmosphere gas mixture (5% carbon dioxide, 1% oxygen, and balance nitrogen). The hypoxia chamber was then placed in a 37° C. incubator.
(§2) APRE-19 cells were plated in two 96-well plates at a confluence of 80% and cultured overnight. The next day, a series dilution of BNC4 (100, 50, 25, 12.5, 6.25, 3.13, 1.56, 0.78, 0 nM) was added into cultures. […] Supernatants were collected for ELISAs and cells were saved for MTS assay (MTS assay readouts was used in normalizing cell numbers). […] Affection curves (BNC4 on secretion of angiogenesis proteins) and their IC50s were generated by plotting the average normalized absorbance (450 nm minus 540nm) for each treatment on Y axis versus the corresponding BNC4 concentrations on X axis using software XLfit 4.1.
(§3) ELISAs were then performed on the APRE-19 cells treated with BNC4 and incubated under normal or hypoxia conditions as described above. […] Supernatants were collected for ELISAs and cells were saved for MTS assay (MTS assay readouts was used in normalizing cell numbers). […]

TIMP-1 = TIMP-1 ELISA on supernatants of ARPE-19 cells under hypoxia; assay type: cell-based; conditions: Homo sapiens, ARPE-19, hypoxia 24 hours, read-out: IC50 TIMP-1 expression
Description: as §1, §2, §3

angiogenin = experiment: Angiogenin ELISA on supernatants of ARPE-19 cells under hypoxia; assay type: cell-based; conditions: Homo sapiens, ARPE-19, hypoxia 24 hours, read-out: IC50 angiogenin expression
Description: as §1, §2, §3

C[C@@H]1O[C@@H](O[C@H]2C[C@@H](O)[C@]3(CO)[C@H]4[C@H](O)C[C@]5(C)[C@@H](C6=CC(=O)OC6)CC[C@]5(O)[C@@H]4CC[C@]3(O)C2)[C@H](O)[C@H](O)[C@H]1O [BNC1, ouabain]
area of choroidal neovascularization [1]: reduced the area of choroidal neovascularization | decrease of the concentration effective for inhibiting proliferation of cancer cells by combination (cancer cell lines; combination with steroid signal modulator (Casodex)): 5 fold | serum concentration [2]: 20 ng/mL | max. plasma concentration [3]: about 0.03 μg/mL

C[C@@H]1O[C@@H](O[C@@H]2C=C3CC[C@@H]4[C@H](CC[C@]5(C)[C@@H](c6ccc(=O)oc6)CC[C@]45O)[C@@]3(C)CC2)[C@H](O)[C@H](O)[C@H]1O [BNC4, proscillaridin]
inhibition of hypoxia-mediated HIF-1α induction (HIF-1α; ARPE-19 cells, hypoxia, western blot (FIG. 1)): inhibit hypoxia-mediated HIF-1α induction | potency relative to BNC1 in inhibiting HIF-1α expression (HIF-1α; human retinal pigment epithelial cells): about 10 times | IC50 (VEGF): 32.5 nM | IC50 (TIMP-1): 12.9 nM | IC50 (angiogenin): 4.5 nM | area of choroidal neovascularization [1]: reduced the area of choroidal neovascularization | decrease of the concentration effective for inhibiting proliferation of cancer cells by combination (cancer cell lines): 5 fold | serum concentration [2]: 60 ng/mL | plasma half-life ([3]; human, according to the literature): about 40 hours | max. plasma concentration [3]: about 0.1 μg/mL
